1 compound from patent US7947719B2, “Biologically active compounds obtainable from Sorangium cellulosum” (Hemholtz-Zentrum fur Infektionsforschung GmbH, priority 2005, dated 2011) can be followed below.

≈ marks a conversion by molar mass, not a printed value.

Common to all, as to format: cell-based
Assay [1] relates to mouse fibroblast cell line L929 (ATCC CCL 1). Description: Toxicity against mouse fibroblast cell line L929. To be noted: L929 (ATCC CCL 1) mouse fibroblasts; read-out: inhibitory concentration IC50 (toxicity). On the procedure: The toxicity tested against the mouse fibroblast cell line L929 (ATCC CCL 1) according to Sasse et al. (J. Antibiotics 56:827-831 (2003)), an inhibitory concentration IC50 of 30 pg/mL was determined.

For assay [2], the system named is Escherichia coli (DMSZ 5347). Kind of assay: Minimal inhibitory concentration against micro-organisms. The text has this:
(§1) As an example for compounds according to the invention, Disorazole Z has been analyzed for biological activity following the methods as disclosed in Irschik et al. (The Sorangicins, novel and powerful inhibitors of eubacterial RNA polymerase isolated from myxobacteria, J. Antibiotics 40: 7-13 (1987)). The following minimal inhibitory concentrations against organisms were found: […]

For the next assay, the system named is Mucor hiemalis. Described as above.
Excerpt: as §1

A further assay relates to Staphylococcus aureus. The description is as above.
Excerpt: as §1

The next assay deals with Rhodotorula glutinis. The assay is described as above.
Excerpt: as §1

For a further assay, the system named is Botrytis cinerea. Described as above.
Excerpt: as §1

In another assay the test system is Pythium debaryanum. Described as above. To be noted: Globisporangium debaryanum.
Excerpt: as §1

For another assay, the system named is Saccharomyces cerevisiae. The assay is described as above.
Excerpt: as §1

In general, MIC refers to the smallest concentration in the dilution series that meets the test's criterion for growth inhibition. On to `C/C=C/C(O)C(C)(C(=O)OC)C1C\C=C/C=C/C=C/c2nc(co2)C(=O)OC(C(C)(C(=O)OC)C(O)/C=C/C)C\C=C/C=C/C=C/c2nc(co2)C(=O)O1` (centres unmarked) [Disorazole Z], for which, in assay [1], the IC50 stood at 0.03 ng/mL (≈ 4.02e-05 µM). For the same compound, the minimal inhibitory concentration (MIC) in assay [2] was > 25 µg/mL; against Mucor hiemalis, > 6 µg/mL; in the assay with Staphylococcus aureus, > 25 µg/mL; in the assay with Rhodotorula glutinis, 3 µg/mL (≈ 4.02 µM); against Botrytis cinerea it was 6 µg/mL (≈ 8.03 µM); with Pythium debaryanum it was 3 µg/mL (≈ 4.02 µM). For the same compound, the MIC in the assay on Saccharomyces cerevisiae is > 6 µg/mL.
